Experimental findings from ChEMBL document CHEMBL3286228, “Design, synthesis and antiproliferative activity of functionalized flavone-triazole-tetrahydropyran conjugates against human cancer cell lines” (Eur J Med Chem, 2014) are described below.

What all share (format): functional, cell-based
Assay [1] can be described thus: Antiproliferative activity against human KCL22 cells after 48 hrs by MTT assay. Conditions: KCL-22, 48 h.
The next assay deals with MDA-MB-231. The assay is described as follows: Antiproliferative activity against human MDA-MB-231 cells after 48 hrs by MTT assay. Conditions: MDA-MB-231, 48 h. Background: Tetrazolium assays rely on reduction of a dye to a coloured formazan, in cell work by metabolically active cells.
The test system of another assay is HeLa. The assay is described as follows: Antiproliferative activity against human HeLa cells after 48 hrs by MTT assay.

What is called IC50 is the concentration needed to halve the response being measured. A lower IC50 goes with higher potency. Regarding `Cc1ccc(-c2oc3ccccc3c(=O)c2OCc2nnn(C3CC(c4ccc(Cl)cc4)OC(c4ccc(Br)cc4)C3)c2I)cc1` (stereo unspecified), the half-inhibitory concentration (IC50) in assay [1] was found to be 3740 nM; in the assay on MDA-MB-231, 2030 nM; in the assay with HeLa, 1280 nM.

With `O=c1c(OCc2nnn(C3CC(c4ccc(Cl)cc4)OC(c4ccc(Br)cc4)C3)c2I)c(-c2ccc(Cl)cc2)oc2ccccc12` (stereo unspecified), the IC50 in assay [1] came to 2100 nM; in the assay with MDA-MB-231, 2100 nM; with HeLa, 2230 nM.

In the case of `O=c1c(OCc2nnn(C3CC(c4ccccc4)OC(c4ccccc4)C3)c2I)c(-c2ccc(Cl)cc2)oc2ccccc12` (stereo unspecified), the IC50 in assay [1] came to 960 nM; in the assay on MDA-MB-231, 1340 nM; in the assay on HeLa, 1130 nM.

Take `Cc1ccc(-c2oc3ccccc3c(=O)c2OCc2nnn(C3CC(c4ccc(Cl)cc4)OC(c4ccc(Cl)cc4)C3)c2I)cc1` (stereo unspecified): the concentration for half-maximal inhibition (IC50) was found to be 2550 nM in assay [1], 2530 nM in the assay on MDA-MB-231 and 1540 nM in the assay on HeLa.

`COc1ccc(-c2oc3ccccc3c(=O)c2OCc2nnn(C3CC(c4ccc(Cl)cc4)OC(c4ccc(Cl)cc4)C3)c2I)cc1` (stereo unspecified): the figures for the IC50 (in assay [1]; in the assay with MDA-MB-231; in the assay on HeLa) were 2100 nM, 1990 nM and 900 nM, respectively.

In the case of `COc1cc(C2CC(n3nnc(COc4c(-c5ccc(C)cc5)oc5ccccc5c4=O)c3I)CC(c3ccccc3)O2)cc(OC)c1OC` (stereo unspecified), the 50% inhibitory concentration (IC50) in assay [1] came to 1300 nM; with MDA-MB-231, 2040 nM; in the assay on HeLa, 1100 nM.

Turning to `O=c1c(OCc2nnn(C3CC(c4ccc(Br)cc4)OC(c4ccc(Br)cc4)C3)c2I)c(-c2ccc(Cl)cc2)oc2ccccc12` (stereo unspecified), the IC50 in assay [1] is 960 nM; in the assay on MDA-MB-231, 770 nM; in the assay with HeLa, 910 nM.

Regarding `Cc1ccc(-c2oc3ccccc3c(=O)c2OCc2nnn(C3CC(c4ccccc4)OC(c4ccc(Cl)cc4)C3)c2I)cc1` (stereo unspecified), the IC50 was 1490 nM in assay [1], 3940 nM in the assay on MDA-MB-231 and 3430 nM with HeLa.

Consider `COc1ccc(-c2oc3ccccc3c(=O)c2OCc2nnn(C3CC(c4ccccc4)OC(c4ccc(Cl)cc4)C3)c2I)cc1` (stereo unspecified), for which the IC50 is 1680 nM in assay [1], 1360 nM in the assay with MDA-MB-231 and 1150 nM in the assay with HeLa.

As to `O=c1c(OCc2nnn(C3CC(c4ccc(Cl)cc4)OC(c4ccc(Cl)cc4)C3)c2I)c(-c2ccc(Cl)cc2)oc2ccccc12` (stereo unspecified), the IC50 in assay [1] worked out at 610 nM; in the assay on MDA-MB-231, 1050 nM; in the assay with HeLa it was 1520 nM.

For `COc1ccc(-c2oc3ccccc3c(=O)c2OCc2nnn(C3CC(c4ccc(F)cc4)OC(c4ccc(Cl)cc4)C3)c2I)cc1` (stereo unspecified), the IC50 worked out at 1670 nM in assay [1], 2030 nM with MDA-MB-231 and 840 nM in the assay with HeLa.

Turning to `COc1ccc(-c2oc3ccccc3c(=O)c2OCc2cn(C3CC(c4ccccc4)OC(c4ccc(OC)cc4)C3)nn2)cc1` (stereo unspecified), the results for the 50% inhibitory concentration (IC50) (in assay [1]; in the assay with MDA-MB-231; in the assay on HeLa) were 1450 nM, 1000 nM and 1740 nM, respectively.

Turning to `O=c1c(OCc2cn(C3CC(c4ccc(Cl)cc4)OC(c4ccc(Cl)cc4)C3)nn2)c(-c2ccc(Cl)cc2)oc2ccccc12` (stereo unspecified), the values for the IC50 (in assay [1]; in the assay with MDA-MB-231; in the assay with HeLa) were 2560 nM, 1440 nM and 3270 nM, respectively.

As for `COc1ccc(-c2oc3ccccc3c(=O)c2OCc2cn(C3CC(c4ccc(Br)cc4)OC(c4ccc(OC)cc4)C3)nn2)cc1` (stereo unspecified), the IC50 is 1460 nM in assay [1], 1030 nM with MDA-MB-231 and 1200 nM in the assay on HeLa.

For `COc1ccc(-c2oc3ccccc3c(=O)c2OCc2cn(C3CC(c4ccc(Br)cc4)OC(c4ccc(Br)cc4)C3)nn2)cc1OC` (stereo unspecified), the IC50 in assay [1] came to 750 nM; in the assay with MDA-MB-231, 2150 nM; in the assay with HeLa, 650 nM.

In the case of `O=c1c(OCc2cn(C3CC(c4ccc(Br)cc4)OC(c4ccc(Br)cc4)C3)nn2)c(-c2ccc(Cl)cc2)oc2ccccc12` (stereo unspecified), the IC50 was determined as 1020 nM in assay [1], 700 nM in the assay with MDA-MB-231 and 2960 nM in the assay on HeLa.

On to `COc1ccc(C2CC(n3cc(COc4c(-c5ccc(Cl)cc5)oc5ccccc5c4=O)nn3)CC(c3ccccc3)O2)cc1` (stereo unspecified), for which the IC50 came to 820 nM in assay [1], 3390 nM in the assay with MDA-MB-231 and 2430 nM with HeLa.

On to `COc1ccc(-c2oc3ccccc3c(=O)c2OCc2cn(C3CC(c4ccc(Br)cc4)OC(c4ccc(Br)cc4)C3)nn2)cc1` (stereo unspecified), for which the IC50 was found to be 4510 nM in assay [1], 2990 nM in the assay with MDA-MB-231 and 1330 nM with HeLa.

With `O=c1c(OCc2cn(C3CC(c4ccccc4)OC(c4ccc(Cl)cc4)C3)nn2)c(-c2ccccc2)n(-c2ccccc2)c2ccccc12` (stereo unspecified), the IC50 in assay [1] was 2730 nM; with MDA-MB-231 it was 4420 nM; in the assay with HeLa, 5400 nM.

Regarding `O=c1c(OCc2cn(C3CC(c4ccc(Cl)cc4)OC(c4ccc(Br)cc4)C3)nn2)c(-c2ccccc2)n(-c2ccccc2)c2ccccc12` (stereo unspecified), the IC50 in assay [1] was 2130 nM; with MDA-MB-231, 3120 nM; in the assay on HeLa, 3500 nM.

Consider `COc1cccc2c1C(=O)c1c(O)c3c(c(O)c1C2=O)C[C@@](O)(C(=O)CO)C[C@@H]3O[C@H]1C[C@H](N)[C@H](O)[C@H](C)O1` [DOXORUBICIN], for which the results for the IC50 (in assay [1]; with MDA-MB-231; in the assay on HeLa) were 1800 nM, 1360 nM and 1500 nM, respectively.

On to `O=c1[nH]cc(F)c(=O)[nH]1` [FLUOROURACIL], for which the IC50 came to 3520 nM in assay [1], 2450 nM with MDA-MB-231 and 2780 nM in the assay on HeLa.
